These are literature values, as cited in patent publication US20210186870A1, “IMPROVED CANNABINOID BIOAVAILABILITY” (EMERALD HEALTH TH[…] INC., priority 2018, published 2021).

Where two headings read alike, the source gives them in different places.

For the molecule `CCCCCc1cc(O)c2c(c1)OC(C)(C)[C@@H]1CCC(C)=C[C@@H]21` [THC, tetrahydrocannabinol], the “bioavailability of THC” value runs as follows: (from inhaled cannabis smoke) 2-56%; (orally consumed cannabis) 4-20%.
